# Experimental data: patent US20250281507A1, “METHODS OF TREATING NEPHROTIC SYNDROME” (The Research Institute at Nationwide Children's Hospital, priority 2021, published 2025)
# Values joined by “and” are separate entries in the source; they are usually repeats but may differ in a detail not shown here. Identical values can stand only once.
# Assays:
# Type in all cases: in vivo, human
# [1] = system: children with NS; experiment: Renal survival, renal function, remission and prednisone taper on pioglitazone
# Source text: (§1) In the following clinical studies, the efficacy and safety of adding pioglitazone to reduce proteinuria in children with NS was examined. All children with NS identified worldwide to have been treated with pioglitazone were included, with no patients excluded. Each patient had pioglitazone added to their other NS medications at the discretion of their treating pediatric nephrologist. All patient records were reviewed in a de-identified manner, with prior ethics committee approval at each institution. Data were analyzed based on defined time periods before and after the addition of pioglitazone. Patients were defined as having responded to pioglitazone (i.e., Responders) if their urine protein to creatinine ratio (UPCR, mg/mg) decreased from the period 0-1 month pre-pioglitazone to the period 0-1 month post-pioglitazone. Glomerular filtration rate estimation (eGFR) in patients <18 years was calculated using the revised Schwartz equation. In patients >18 years, eGFR was calculated as the mean of the revised Schwartz and CKD-EPI creatinine equations. Quantitative data, such as patient age, duration of NS, pioglitazone dosage, and outcomes of UPCR, TIS, and serum albumin, were summarized as means (standard errors of mean), while categorical data such as renal survival status were summarized as frequency (percent). Due to a small sample size, Responders and Non-responders were compared using Wilcoxon Rank Sum tests on quantitative variables and Fisher's exact tests on categorical variables. For both Responders and Non-responders, pre-pioglitazone to post-pioglitazone initiation changes in UPCR, TIS, and serum albumin levels were analyzed using Wilcoxon Signed Rank tests. Numbers of hospitalizations pre-pioglitazone and post-pioglitazone initiation were analyzed and compared using Poisson distributions. Statistical significance was assessed at both the 0.05 and 0.10 levels. All analyses were conducted using SPSS software ver. 26 (IBM, Armonk, NY, USA).
# [2] = system: children with NS; experiment: Proteinuria (urine protein to creatinine ratio, UPCR) before and after addition of pioglitazone
# Source text: as §1
# [3] = system: children with NS; experiment: Serum albumin before and after addition of pioglitazone; conditions: for % S Alb increase (0-1 mo) / % S Alb increase (5-7 mo): vs 0-1 mo pre-PIO; for serum albumin increase, range / mean serum albumin: Responders; for mean serum albumin: pre 2.5 g/dL
# Source text: as §1
# [4] = Patient 1 (Responder), pre-PIO 8.5
# [5] = Patient 1 (Responder), vs 0-1 mo pre-PIO
# [6] = Patient 2 (Responder), pre-PIO 6
# [7] = Patient 2 (Responder), vs 0-1 mo pre-PIO
# [8] = Patient 3 (Responder), pre-PIO 11.2
# [9] = Patient 3 (Responder), vs 0-1 mo pre-PIO
# [10] = Patient 5 (Non-responder), pre-PIO 0.46
# [11] = Patient 5 (Non-responder), vs 0-1 mo pre-PIO
# [12] = Patient 6 (Responder), pre-PIO 2.16
# [13] = Patient 6 (Responder), vs 0-1 mo pre-PIO
# [14] = Patient 7 (Non-responder), pre-PIO 7.5
# [15] = Patient 7 (Non-responder), vs 0-1 mo pre-PIO
# [16] = Patient 8 (Responder), pre-PIO 4.66
# [17] = Patient 8 (Responder), vs 0-1 mo pre-PIO
# [18] = mean of 5 Responders, pre-PIO 6.50
# [19] = mean of 5 Responders, vs 0-1 mo pre-PIO
# [20] = mean of Non-responders (Patient 4 ESRD)
# [21] = Patient 1 (Responder), pre-PIO 2.5
# [22] = Patient 2 (Responder), pre-PIO 2.4
# [23] = Patient 3 (Responder), pre-PIO 1.7
# [24] = Patient 5 (Non-responder), pre-PIO 4.4
# [25] = Patient 6 (Responder), pre-PIO 4.5
# [26] = Patient 7 (Non-responder), pre-PIO 2.9
# [27] = Patient 8 (Responder), pre-PIO 1.2
# [28] = mean of 5 Responders, pre-PIO 2.46
smiles,measurement,setting,value
CCc1ccc(CCOc2ccc(CC3SC(=O)NC3=O)cc2)nc1 (stereo not drawn) [pioglitazone],"Renal Survival, % survival",[1]; 3 Non-responders,33.3%
same,"Renal Survival, % survival",[1]; 5 Responders,100%
same,Renal Survival,[1]; Patient 1 (Responder),yes
same,renal function,"[1]; Patient 1, during pioglitazone treatment",maintained normal renal function
same,Renal Survival,[1]; Patient 2 (Responder),yes
same,renal function,"[1]; Patient 2, during pioglitazone treatment",maintained normal renal function
same,PRED dose after taper,"[1]; Patient 2, orally QD, from 30 mg/d",5 mg
same,remission,"[1]; Patient 2, pioglitazone 15 mg orally QD for 16 weeks",achieved full remission
same,Renal Survival,[1]; Patient 3 (Responder),yes
same,Prednisone dose after decrease,"[1]; Patient 3, from 40 mg/d",20 mg/day
same,Renal Survival,"[1]; Patient 4 (Non-responder), cFSGS, AKI at presentation",no
same,renal function,"[1]; Patient 4, during pioglitazone treatment",renal function continued to worsen
same,Renal Survival,[1]; Patient 5 (Non-responder),yes
same,NS relapses,"[1]; Patient 5, on pioglitazone for 2.5 years",continued to have NS relapses
same,Renal Survival,[1]; Patient 6 (Responder),yes
same,serum creatinine,"[1]; Patient 6, on MMF and pioglitazone",0.90 mg/dL
same,Renal Survival,[1]; Patient 7 (Non-responder),no
same,renal function,"[1]; Patient 7, pre-pioglitazone eGFR 44 ml/min/1.73 m^2",remained stable during the 6 months of pioglitazone treatment
same,Renal Survival,[1]; Patient 8 (Responder),yes
same,renal function,"[1]; Patient 8, during pioglitazone treatment",renal function remained normal
same,remission,"[1]; Patient 8, following 5-7 months",remained in complete remission
same,PRED dose after taper,"[1]; Patient 8, from 25 mg/d",10 mg/day
same,"UPCR in Responders, range",[2]; 5-7 months post-pioglitazone,0.06 to 0.5 mg/mg
same,Patients with prompt and significant reductions in proteinuria (Responders),"[2]; Five of 8 pioglitazone-treated patients, UPCR decrease 0-1 mo pre- to 0-1 mo post-pioglitazone",63%
same,Post-PIO UPCR (0-1 mo; mg/mg),[2]; [4],4 mg/mg
same,Post-PIO UPCR (5-7 mo; mg/mg),[2]; [4],0.2 mg/mg
same,% UPCR Reduction (0-1 mo),[2]; [5],53% and 52.9%
same,% UPCR Reduction (5-7 mo),[2]; [5],98% and 97.6%
same,Post-PIO UPCR (0-1 mo; mg/mg),[2]; [6],2 mg/mg
same,Post-PIO UPCR (5-7 mo; mg/mg),[2]; [6],0.12 mg/mg
same,% UPCR Reduction (0-1 mo),[2]; [7],67% and 66.7%
same,% UPCR Reduction (5-7 mo),[2]; [7],98%
same,Post-PIO UPCR (0-1 mo; mg/mg),[2]; [8],6.4 mg/mg
same,Post-PIO UPCR (5-7 mo; mg/mg),[2]; [8],0.5 mg/mg
same,% UPCR Reduction (0-1 mo),[2]; [9],43% and 42.9%
same,% UPCR Reduction (5-7 mo),[2]; [9],96% and 95% and 95.5%
same,UPCR increase,"[2]; Patient 4 (Non-responder), over the next 1 month",133%
same,Post-PIO UPCR (0-1 mo; mg/mg),"[2]; Patient 4 (Non-responder), pre-PIO 28.8, urine obtained soon after IV albumin infusion",67.0 mg/mg and 67 mg/mg
same,% UPCR Reduction (0-1 mo),"[2]; Patient 4 (Non-responder), vs 0-1 mo pre-PIO",−133%
same,UPCR increase,"[2]; Patient 5 (Non-responder), 1-month post-PIO",139%
same,increase in proteinuria (UPCR),"[2]; Patient 5 (Non-responder), 5-7 months post-pioglitazone",24%
same,Post-PIO UPCR (0-1 mo; mg/mg),[2]; [10],1.1 mg/mg
same,Post-PIO UPCR (5-7 mo; mg/mg),[2]; [10],0.57 mg/mg
same,% UPCR Reduction (0-1 mo),[2]; [11],−139%
same,% UPCR Reduction (5-7 mo),[2]; [11],−23.9%
same,Post-PIO UPCR (0-1 mo; mg/mg),[2]; [12],1.09 mg/mg
same,Post-PIO UPCR (5-7 mo; mg/mg),[2]; [12],0.11 mg/mg
same,% UPCR Reduction (0-1 mo),[2]; [13],50% and 49.5%
same,% UPCR Reduction (5-7 mo),[2]; [13],95% and 94.9%
same,increase in proteinuria (UPCR),"[2]; Patient 7 (Non-responder), 5-7 months post-pioglitazone",77%
same,UPCR increase,"[2]; Patient 7 (Non-responder), over the next 1 month",13%
same,Post-PIO UPCR (0-1 mo; mg/mg),[2]; [14],8.5 mg/mg
same,Post-PIO UPCR (5-7 mo; mg/mg),[2]; [14],13.3 mg/mg
same,% UPCR Reduction (0-1 mo),[2]; [15],−13.3%
same,% UPCR Reduction (5-7 mo),[2]; [15],77.3%
same,Post-PIO UPCR (0-1 mo; mg/mg),[2]; [16],0.08 mg/mg
same,Post-PIO UPCR (5-7 mo; mg/mg),[2]; [16],0.06 mg/mg
same,% UPCR Reduction (0-1 mo),[2]; [17],98% and 98.3%
same,% UPCR Reduction (5-7 mo),[2]; [17],99% and 98.7%
same,"Post-PIO UPCR (0-1 mo; mg/mg), Mean (SEM)",[2]; [18],2.7 mg/mg and 2.71 mg/mg
same,"Post-PIO UPCR (5-7 mo; mg/mg), Mean (SEM)",[2]; [18],0.2 mg/mg and 0.20 mg/mg
same,"% UPCR Reduction (0-1 mo), Mean (SEM)",[2]; [19],62% and 62.1%
same,"% UPCR Reduction (5-7 mo), Mean (SEM)",[2]; [19],97%
same,"Post-PIO UPCR (5-7 mo; mg/mg), Mean (SEM)",[2]; [20],6.94 mg/mg
same,"% UPCR Reduction (5-7 mo), Mean (SEM)",[2]; mean of Non-responders (Patient 4 NA),−50.6%
same,"Post-PIO UPCR (0-1 mo; mg/mg), Mean (SEM)","[2]; mean of Non-responders, pre-PIO 12.3",25.5 mg/mg
same,"% UPCR Reduction (0-1 mo), Mean (SEM)","[2]; mean of Non-responders, vs 0-1 mo pre-PIO",−95.0%
same,"UPCR reduction in Responders, range",[2]; within the first month of pioglitazone treatment,43-98%
same,"UPCR in Responders, range","[2]; within the first month of pioglitazone treatment, pre range 2.2-11.2",0.1 to 6.4 mg/mg
same,Post-PIO S Alb (0-1 mo; g/dL),[3]; [21],2.9 g/dL
same,Post-PIO S Alb (5-7 mo; g/dL),[3]; [21],3.5 g/dL
same,% S Alb increase (0-1 mo),[3]; Patient 1 (Responder),16.0%
same,% S Alb increase (5-7 mo),[3]; Patient 1 (Responder),40.0%
same,Post-PIO S Alb (0-1 mo; g/dL),[3]; [22],3 g/dL
same,Post-PIO S Alb (5-7 mo; g/dL),[3]; [22],3.5 g/dL
same,% S Alb increase (0-1 mo),[3]; Patient 2 (Responder),25.0%
same,% S Alb increase (5-7 mo),[3]; Patient 2 (Responder),45.8%
same,Post-PIO S Alb (0-1 mo; g/dL),[3]; [23],2.3 g/dL
same,Post-PIO S Alb (5-7 mo; g/dL),[3]; [23],3.7 g/dL
same,% S Alb increase (0-1 mo),[3]; Patient 3 (Responder),35.3%
same,% S Alb increase (5-7 mo),[3]; Patient 3 (Responder),118%
same,Post-PIO S Alb (0-1 mo; g/dL),"[3]; Patient 4 (Non-responder), pre-PIO 1.6, increase attributed to declining kidney function",2.7 g/dL
same,% S Alb increase (0-1 mo),[3]; Patient 4 (Non-responder),68.8%
same,Post-PIO S Alb (0-1 mo; g/dL),[3]; [24],4.1 g/dL
same,Post-PIO S Alb (5-7 mo; g/dL),[3]; [24],4.3 g/dL
same,% S Alb increase (0-1 mo),[3]; Patient 5 (Non-responder),−6.82%
same,% S Alb increase (5-7 mo),[3]; Patient 5 (Non-responder),−2.27%
same,Post-PIO S Alb (0-1 mo; g/dL),[3]; [25],4.1 g/dL
same,Post-PIO S Alb (5-7 mo; g/dL),[3]; [25],4.4 g/dL
same,% S Alb increase (0-1 mo),[3]; Patient 6 (Responder),−8.89%
same,% S Alb increase (5-7 mo),[3]; Patient 6 (Responder),−2.22%
same,Post-PIO S Alb (0-1 mo; g/dL),[3]; [26],2.8 g/dL
same,Post-PIO S Alb (5-7 mo; g/dL),[3]; [26],3.1 g/dL
same,% S Alb increase (0-1 mo),[3]; Patient 7 (Non-responder),−3.45%
same,% S Alb increase (5-7 mo),[3]; Patient 7 (Non-responder),6.90%
same,Post-PIO S Alb (0-1 mo; g/dL),[3]; [27],3.1 g/dL
same,Post-PIO S Alb (5-7 mo; g/dL),[3]; [27],3.4 g/dL
same,% S Alb increase (0-1 mo),[3]; Patient 8 (Responder),158%
same,% S Alb increase (5-7 mo),[3]; Patient 8 (Responder),183%
same,"serum albumin increase, range",[3]; 0-1 month post-pioglitazone,−9-158%
same,mean serum albumin,[3]; 0-1 month post-pioglitazone,3.1 g/dL
same,"serum albumin increase, range",[3]; 5-7 months post-pioglitazone,−2-183%
same,mean serum albumin,[3]; 5-7 months post-pioglitazone,3.7 g/dL
same,"% S Alb increase (0-1 mo), Mean (SEM)",[3]; mean of 5 Responders,45% and 45.2%
same,"% S Alb increase (5-7 mo), Mean (SEM)",[3]; mean of 5 Responders,77% and 76.9%
same,"Post-PIO S Alb (0-1 mo; g/dL), Mean (SEM)",[3]; [28],3.08 g/dL
same,"Post-PIO S Alb (5-7 mo; g/dL), Mean (SEM)",[3]; [28],3.7 g/dL
same,"% S Alb increase (0-1 mo), Mean (SEM)",[3]; mean of Non-responders,19.5%
same,"Post-PIO S Alb (5-7 mo; g/dL), Mean (SEM)",[3]; [20],3.7 g/dL
same,"% S Alb increase (5-7 mo), Mean (SEM)",[3]; mean of Non-responders (without Patient 4),2.31%
same,"Post-PIO S Alb (0-1 mo; g/dL), Mean (SEM)","[3]; mean of Non-responders, pre-PIO 2.97",3.2 g/dL
